From patent publication US20060270685A1, “Anhydrous ziprasidone mesylate and a process for its preparation” (priority 2005, published 2006)
Where a name gives a salt, the structure may show the parent alone.

Assays:
[1] = Water uptake (hygroscopicity) after exposure to 80% relative humidity, Karl Fisher and XRD; format: physicochemical
Experimental: The present invention further provides non hygroscopic anhydrous ziprasidone mesylate. Anhydrous ziprasidone mesylate is tested for water uptake after exposure to 80% relative humidity, at room temperature for 7 days, as summarized in the following table:
X-Ray powder diffraction data were obtained using a SCINTAG powder X-Ray diffractometer model X'TRA equipped with a solid state detector. Copper radiation of 1.5418 Å was used. A round aluminum sample holder with zero background was used. All peak positions are within ±0.2 degrees two theta. Karl Fisher analysis was performed according to the known art.
Anhydrous ziprasidone mesylate, having a tabular, and equant morphology was exposed to 80% humidity for at least 7 days at room temperature. Before the exposure, the water content was 0.5% as measured by Karl Fisher. After 7 days at 80% humidity at RT the sample contained 0.6% water as measured by Karl Fisher. Thus, there was an increase of 0.1% in the water content.

[2] = when exposed to air (humidity); cited from earlier work
[3] = 80% RH, room temperature, 7 days

- Crystal form (by XRD) [1, 3]: Anhydrous
- water Content (By KF) [1, 3]: 0.6
- change in the crystal form after the exposure ([1]; 80% humidity, at least 7 days, room temperature): No change in the crystal form
- increase in the water content ([1]; 7 days at 80% humidity at RT vs before exposure): 0.1%
- Crystal form (by XRD) ([1]; Initial, before exposure): Anhydrous
- water Content (By KF) ([1]; Initial, before exposure): 0.5
- water content as measured by Karl Fisher ([1]; after 7 days at 80% humidity at RT): 0.6%
- water content as measured by Karl Fisher ([1]; before the exposure): 0.5%
SMILES: O=C1Cc2cc(CCN3CCN(c4nsc5ccccc45)CC3)c(Cl)cc2N1 [Anhydrous ziprasidone mesylate, ziprasidone mesylate]
- hygroscopicity [2]: hygroscopic
